Patent US10005788B2, “Bicyclic fused pyrimidine compounds as TAM inhibitors” (Incyte Corporation, priority 2015, dated 2018)
pIC50: −log10 of the molar value.

Columns and labels:
JAK2 = JAK2 (Homo sapiens (Human), UniProt O60674); conditions: ratio of IC50, 1 mM ATP; cited from earlier work
JAK1 = JAK1 (Homo sapiens (Human), UniProt P23458); conditions: 1 mM ATP; cited from earlier work
c-Mer = c-Mer (Homo sapiens (Human), UniProt Q12866); test: TAM Enzymatic Assay (HTRF), c-Mer; type: biochemical; conditions: 0.0625 nM c-Mer
c-Mer, sequence (Q12866 21-999): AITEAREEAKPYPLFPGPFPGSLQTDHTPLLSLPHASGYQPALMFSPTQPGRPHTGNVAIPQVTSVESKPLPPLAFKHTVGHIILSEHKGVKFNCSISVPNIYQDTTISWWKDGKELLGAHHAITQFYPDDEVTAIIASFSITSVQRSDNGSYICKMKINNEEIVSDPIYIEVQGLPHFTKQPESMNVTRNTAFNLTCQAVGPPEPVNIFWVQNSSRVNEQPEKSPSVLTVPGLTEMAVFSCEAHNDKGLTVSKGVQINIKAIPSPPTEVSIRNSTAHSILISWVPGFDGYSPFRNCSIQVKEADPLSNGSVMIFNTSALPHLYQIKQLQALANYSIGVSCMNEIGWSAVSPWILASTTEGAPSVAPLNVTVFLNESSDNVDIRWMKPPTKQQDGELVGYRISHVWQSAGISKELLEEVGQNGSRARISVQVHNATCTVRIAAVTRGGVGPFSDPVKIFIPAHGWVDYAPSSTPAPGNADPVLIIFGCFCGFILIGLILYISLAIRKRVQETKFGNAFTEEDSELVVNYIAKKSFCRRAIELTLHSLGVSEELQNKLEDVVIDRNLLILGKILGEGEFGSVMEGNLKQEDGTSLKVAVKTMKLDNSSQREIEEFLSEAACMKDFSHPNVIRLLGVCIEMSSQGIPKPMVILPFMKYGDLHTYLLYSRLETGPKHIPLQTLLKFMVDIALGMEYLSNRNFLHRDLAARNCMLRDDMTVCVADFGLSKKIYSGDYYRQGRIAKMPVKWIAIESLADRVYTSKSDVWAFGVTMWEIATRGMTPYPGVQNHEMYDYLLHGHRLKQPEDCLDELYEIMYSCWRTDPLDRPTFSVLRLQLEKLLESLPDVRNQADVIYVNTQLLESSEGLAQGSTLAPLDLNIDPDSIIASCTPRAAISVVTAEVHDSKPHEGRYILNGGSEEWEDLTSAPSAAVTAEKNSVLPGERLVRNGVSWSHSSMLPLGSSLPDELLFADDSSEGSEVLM

Tyro3 = Tyro3 (Homo sapiens (Human), UniProt Q06418); test: TAM Enzymatic Assay (HTRF), Tyro3; type: biochemical; conditions: 0.366 nM Tyro3, HTRF
Tyro3, sequence (Q06418 41-890): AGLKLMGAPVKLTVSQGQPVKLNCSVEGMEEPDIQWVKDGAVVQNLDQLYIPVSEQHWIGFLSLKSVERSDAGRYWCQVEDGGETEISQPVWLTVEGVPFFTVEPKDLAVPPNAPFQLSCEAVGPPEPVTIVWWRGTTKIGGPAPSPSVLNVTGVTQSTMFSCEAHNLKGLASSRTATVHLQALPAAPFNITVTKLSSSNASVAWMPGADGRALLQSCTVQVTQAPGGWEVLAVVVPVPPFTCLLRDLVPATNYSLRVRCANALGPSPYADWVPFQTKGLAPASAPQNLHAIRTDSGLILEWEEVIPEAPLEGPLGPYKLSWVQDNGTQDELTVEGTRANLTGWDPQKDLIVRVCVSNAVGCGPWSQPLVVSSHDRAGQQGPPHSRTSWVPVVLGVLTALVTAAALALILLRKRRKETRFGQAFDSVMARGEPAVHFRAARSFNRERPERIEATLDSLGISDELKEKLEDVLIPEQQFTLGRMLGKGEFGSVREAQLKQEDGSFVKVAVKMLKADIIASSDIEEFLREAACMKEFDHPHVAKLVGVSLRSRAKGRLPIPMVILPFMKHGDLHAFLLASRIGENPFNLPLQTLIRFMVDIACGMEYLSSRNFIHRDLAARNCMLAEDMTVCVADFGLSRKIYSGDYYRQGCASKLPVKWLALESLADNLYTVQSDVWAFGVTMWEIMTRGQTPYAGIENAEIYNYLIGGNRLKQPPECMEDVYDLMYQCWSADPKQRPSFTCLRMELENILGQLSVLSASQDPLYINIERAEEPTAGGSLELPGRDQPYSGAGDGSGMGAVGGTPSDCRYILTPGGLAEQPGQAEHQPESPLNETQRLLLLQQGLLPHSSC
Method: The kinase assay buffer contained 50 mM HEPES, pH7.5, 10 mM MgCl2, 1 mM EGTA, 0.01% NP-40 and 2 mM DTT. 0.1 ul test compounds dissolved in DMSO were transferred from compound plates to white 384-well assay plates (Greiner [sequence] plates). […] 4 ul enzyme solution (or assay buffer for the enzyme blank) was added to the appropriate wells in each plate, and then 4 ul/well substrate solution was added to initiate the reaction. The plate was protected from light and incubated at room temperature for 60 min. […] The plate was incubated for 1 h at room temperature, and HTRF (homogenous time resolved fluorescence) signal was measured on a PHERAstar FS plate reader (BMG labtech). Percentage of inhibition was calculated for each concentration and IC50 value was generated from curve fitting with GraphPad Prism software.

JAK2, sequence (O60674 whole entry, species assumed): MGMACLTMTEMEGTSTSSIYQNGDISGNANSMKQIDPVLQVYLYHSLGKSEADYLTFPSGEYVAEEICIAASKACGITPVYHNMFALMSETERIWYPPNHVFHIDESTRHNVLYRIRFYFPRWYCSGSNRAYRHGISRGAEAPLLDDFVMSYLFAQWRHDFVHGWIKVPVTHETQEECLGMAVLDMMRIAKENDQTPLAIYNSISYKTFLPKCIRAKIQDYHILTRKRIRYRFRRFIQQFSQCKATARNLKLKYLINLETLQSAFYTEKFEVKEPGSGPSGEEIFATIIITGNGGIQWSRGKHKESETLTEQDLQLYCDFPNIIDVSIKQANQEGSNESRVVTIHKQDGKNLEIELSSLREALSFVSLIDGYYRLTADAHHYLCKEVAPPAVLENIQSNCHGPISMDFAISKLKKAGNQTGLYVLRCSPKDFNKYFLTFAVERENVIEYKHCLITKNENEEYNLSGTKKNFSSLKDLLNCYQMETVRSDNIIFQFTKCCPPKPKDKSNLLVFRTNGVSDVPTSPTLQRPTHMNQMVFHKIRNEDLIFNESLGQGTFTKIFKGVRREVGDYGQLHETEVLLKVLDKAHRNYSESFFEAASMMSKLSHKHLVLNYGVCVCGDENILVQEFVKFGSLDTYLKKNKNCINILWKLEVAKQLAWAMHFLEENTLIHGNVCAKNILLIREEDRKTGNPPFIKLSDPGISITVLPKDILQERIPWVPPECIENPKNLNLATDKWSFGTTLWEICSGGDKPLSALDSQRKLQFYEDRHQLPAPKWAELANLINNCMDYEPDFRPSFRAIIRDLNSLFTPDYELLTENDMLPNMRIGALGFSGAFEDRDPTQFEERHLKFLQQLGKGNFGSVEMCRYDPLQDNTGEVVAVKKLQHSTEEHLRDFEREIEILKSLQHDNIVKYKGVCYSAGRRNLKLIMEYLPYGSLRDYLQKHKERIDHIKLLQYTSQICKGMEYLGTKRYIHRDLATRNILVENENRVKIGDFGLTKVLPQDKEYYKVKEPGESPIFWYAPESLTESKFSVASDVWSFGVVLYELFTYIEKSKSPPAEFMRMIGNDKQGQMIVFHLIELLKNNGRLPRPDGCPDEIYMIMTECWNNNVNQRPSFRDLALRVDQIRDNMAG
JAK1, sequence (P23458 whole entry, species assumed): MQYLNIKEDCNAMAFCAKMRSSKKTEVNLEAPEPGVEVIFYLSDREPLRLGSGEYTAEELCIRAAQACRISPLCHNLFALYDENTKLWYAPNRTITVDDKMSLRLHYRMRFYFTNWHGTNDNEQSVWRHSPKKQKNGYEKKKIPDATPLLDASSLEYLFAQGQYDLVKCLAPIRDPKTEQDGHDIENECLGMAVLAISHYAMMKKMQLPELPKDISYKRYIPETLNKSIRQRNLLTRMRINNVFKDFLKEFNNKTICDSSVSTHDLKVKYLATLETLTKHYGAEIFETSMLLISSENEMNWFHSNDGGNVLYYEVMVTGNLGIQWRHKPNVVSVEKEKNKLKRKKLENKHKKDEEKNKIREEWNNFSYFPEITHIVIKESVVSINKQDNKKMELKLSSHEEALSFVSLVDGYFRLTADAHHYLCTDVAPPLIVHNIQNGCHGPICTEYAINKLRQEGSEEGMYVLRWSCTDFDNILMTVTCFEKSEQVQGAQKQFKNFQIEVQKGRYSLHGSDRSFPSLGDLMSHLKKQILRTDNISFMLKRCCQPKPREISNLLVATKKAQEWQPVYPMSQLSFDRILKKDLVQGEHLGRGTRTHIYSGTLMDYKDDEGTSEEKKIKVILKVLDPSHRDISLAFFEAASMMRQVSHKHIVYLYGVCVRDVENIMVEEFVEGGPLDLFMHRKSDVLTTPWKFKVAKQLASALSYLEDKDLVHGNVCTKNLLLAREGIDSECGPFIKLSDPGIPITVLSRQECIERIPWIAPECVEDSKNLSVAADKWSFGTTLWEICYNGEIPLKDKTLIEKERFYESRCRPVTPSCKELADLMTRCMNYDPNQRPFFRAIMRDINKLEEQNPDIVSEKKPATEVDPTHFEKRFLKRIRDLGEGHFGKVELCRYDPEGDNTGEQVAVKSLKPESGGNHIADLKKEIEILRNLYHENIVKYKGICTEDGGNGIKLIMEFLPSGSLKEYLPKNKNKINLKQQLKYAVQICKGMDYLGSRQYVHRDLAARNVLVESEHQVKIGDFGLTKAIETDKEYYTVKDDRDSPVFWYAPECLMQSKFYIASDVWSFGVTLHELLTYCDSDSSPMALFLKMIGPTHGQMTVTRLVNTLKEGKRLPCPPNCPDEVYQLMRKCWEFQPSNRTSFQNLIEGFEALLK

Row | SMILES | JAK2/JAK1 (JAK2) | further results
1 | N#CC[C@]1(n2cc(-c3ncnc4[nH]ccc34)cn2)C[C@H](N2CCN(C(=O)c3ccnc(C(F)(F)F)n3)CC2)C1 [Compound 10, [trans-1-[4-[7H-pyrrolo[2,3-d]pyrimidin-4-yl)-1H-pyrazol-1-yl]-3-(4-{[2-(trifluoromethyl)pyrimidin-4-yl]carbonyl}piperazin-1-yl)cyclobutyl]acetonitrile] | >10 | –
2 | CCNCc1cc(O[C@H]2CC[C@@H](N3CC(CC#N)(n4cc(-c5ncnc6[nH]ccc56)cn4)C3)CC2)nc(C(F)(F)F)c1 [Compound 19, {1-(cis-4-{[4-[(ethylamino)methyl]-6-(trifluoromethyl)pyridin-2-yl]oxy}cyclohexyl)-3-[4-(7H-pyrrolo[2,3-d]pyrimidin-4-yl)-1H-pyrazol-1-yl]azetidin-3-yl}acetonitrile] | >10 | –
3 | N#CCC(CN1CCN(C(=O)c2ccc(C#N)cc2F)CC1)n1ccc(-c2ncnc3[nH]ccc23)c1 (centres unmarked) [Compound 6, 4-[(4-{3-cyano-2-[3-(7H-pyrrolo[2,3-d]pyrimidin-4-yl)-1H-pyrrol-1-yl]propyl}piperazin-1-yl)carbonyl]-3-fluorobenzonitrile] | >10 | –
4 | N#CCC1(n2cc(-c3ncnc4[nH]ccc34)cn2)CN([C@H]2CC[C@@H](Oc3cc(CCO)nc(C(F)(F)F)n3)CC2)C1 [Compound 18, {1-(cis-4-{[6-(2-hydroxyethyl)-2-(trifluoromethyl)pyrimidin-4-yl]oxy}cyclohexyl)-3-[4-(7H-pyrrolo[2,3-d]pyrimidin-4-yl)-1H-pyrazol-1-yl]azetidin-3-yl}acetonitrile] | >10 | –
5 | C[C@@H](CO)NCc1cc(OC2CCN([C@H]3C[C@](CC#N)(n4cc(-c5ncnc6[nH]ccc56)cn4)C3)CC2)nc(C(F)(F)F)c1 [Compound 23, {trans-3-(4-{[4-({[(1S)-2-hydroxy-1-methylethyl]amino}methyl)-6-(trifluoromethyl)pyridin-2-yl]oxy}piperidin-1-yl)-1-[4-(7H-pyrrolo[2,3-d]pyrimidin-4-yl)-1H-pyrazol-1-yl]cyclobutyl}acetonitrile] | >10 | –
6 | N#CCC1(n2cc(-c3ncnc4[nH]ccc34)cn2)CN(C2CCN(C(=O)c3ccnc(C(F)(F)F)n3)CC2)C1 [Compound 9, [3-[4-(7H-pyrrolo[2,3-d]pyrimidin-4-yl)-1H-pyrazol-1-yl]-1-(1-{[2-(trifluoromethyl)pyrimidin-4-yl]carbonyl}piperidin-4-yl)azetidin-3-yl]acetonitrile] | >10 | –
7 | C[C@H](NC(=O)c1cc(F)c(N2CC(CC#N)(n3cc(-c4ncnc5[nH]ccc45)cn3)C2)cc1F)C(F)(F)F [Compound 16, 4-{3-(cyanomethyl)-3-[4-(7H-pyrrolo[2,3-d]pyrimidin-4-yl)-1H-pyrazol-1-yl]azetidin-1-yl}-2,5-difluoro-N-[(1S)-2,2,2-trifluoro-1-methylethyl]benzamide] | >10 | –
8 | N#CC[C@]1(n2cc(-c3ncnc4[nH]ccc34)cn2)C[C@H](N2CCC(Oc3cc(CCO)cc(C(F)(F)F)n3)CC2)C1 [Compound 26, {trans-3-(4-{[4-(2-hydroxyethyl)-6-(trifluoromethyl)pyridin-2-yl]oxy}piperidin-1-yl)-1-[4-(7H-pyrrolo[2,3-d]pyrimidin-4-yl)-1H-pyrazol-1-yl]cyclobutyl}acetonitrile] | >10 | –
9 | CCCCNc1ncc2c(-c3ccc(F)cc3)nc(C[C@H]3CC[C@H](N)CC3)n2n1 [Example 13, trans-7-[(4-Aminocyclohexyl)methyl]-N-butyl-5-(4-fluorophenyl)imidazo[5,1-f][1,2,4]triazin-2-amine] | – | pIC50 (JAK1): > 8.00
10 | N#CCC(C1CCN(c2nc3cccnc3o2)C1)n1cc(-c2ncnc3[nH]ccc23)cn1 (centres unmarked) [Compound 4, 3-(1-[1,3]oxazolo[5,4-b]pyridin-2-ylpyrrolidin-3-yl)-3-[4-(7H-pyrrolo[2,3-d]pyrimidin-4-yl)-1H-pyrazol-1-yl]propanenitrile] | >10 | –
11 | N#CCC1(n2cc(-c3ncnc4[nH]ccc34)cn2)CN(C2CCN(C(=O)c3ccnc(C(F)(F)F)c3F)CC2)C1 [Compound 7, {1-{1-[3-Fluoro-2-(trifluoromethyl)isonicotinoyl]piperidin-4-yl}-3-[4-(7H-pyrrolo[2,3-d]pyrimidin-4-yl)-1H-pyrazol-1-yl]azetidin-3-yl}acetonitrile] | >10 | –
12 | CCCCNc1ncc2c(-c3ccc(F)cc3)nc(C3CCC(N)CC3)n2n1 (centres unmarked) [Example 15, 7-(4-Aminocyclohexyl)-N-butyl-5-(4-fluorophenyl)imidazo[5,1-f][1,2,4]triazin-2-amine] | – | pIC50 (JAK1): > 8.00
13 | C[C@@H](O)c1nc2cnc3ccsc3c2n1[C@H]1CC[C@H](CC#N)OC1 [Compound 1, ((2R,5S)-5-{2-[(1R)-1-hydroxyethyl]-1H-imidazo[4,5-d]thieno[3,2-b]pyridin-1-yl}tetrahydro-2H-pyran-2-yl)acetonitrile] | >10 | –
14 | CC(C)(O)c1cc(O[C@H]2CC[C@@H](N3CC(CC#N)(n4cc(-c5ncnc6[nH]ccc56)cn4)C3)CC2)nc(C(F)(F)F)c1 [Compound 20, {1-(cis-4-{[4-(1-hydroxy-1-methylethyl)-6-(trifluoromethyl)pyridin-2-yl]oxy}cyclohexyl)-3-[4-(7H-pyrrolo[2,3-d]pyrimidin-4-yl)-1H-pyrazol-1-yl]azetidin-3-yl}acetonitrile] | >10 | –
15 | N[C@H]1CC[C@H](Cc2nc(-c3ccc(F)cc3)c3cnc(NCCCc4ccccc4)nn23)CC1 [Example 14, trans-7-((4-Aminocyclohexyl)methyl)-5-(4-fluorophenyl)-N-(3-phenylpropyl)imidazo[5,1-f][1,2,4]triazin-2-amine] | >10 | pIC50 (c-Mer): ≥ 7.00; pIC50 (Tyro3): < 6.00; pIC50 (JAK1): > 8.00
16 | C[C@H](O)CNCc1cc(OC2CCN([C@H]3C[C@](CC#N)(n4cc(-c5ncnc6[nH]ccc56)cn4)C3)CC2)nc(C(F)(F)F)c1 [Compound 25, {trans-3-(4-{[4-({[(2S)-2-hydroxypropyl]amino}methyl)-6-(trifluoromethyl)pyridin-2-yl]oxy}piperidin-1-yl)-1-[4-(7H-pyrrolo[2,3-d]pyrimidin-4-yl)-1H-pyrazol-1-yl]cyclobutyl}acetontrile] | >10 | –
17 | C[C@@H](O)CNCc1cc(OC2CCN([C@H]3C[C@](CC#N)(n4cc(-c5ncnc6[nH]ccc56)cn4)C3)CC2)nc(C(F)(F)F)c1 [Compound 24, {trans-3-(4-{[4-({[(2R)-2-hydroxypropyl]amino}methyl)-6-(trifluoromethyl)pyridin-2-yl]oxy}piperidin-1-yl)-1-[4-(7H-pyrrolo[2,3-d]pyrimidin-4-yl)-1H-pyrazol-1-yl]cyclobutyl}acetonitrile] | >10 | –
18 | N#CCC1(n2cc(-c3ncnc4[nH]ccc34)cn2)CN(C2CCN(C(=O)Nc3ccc(F)cc3C(F)(F)F)CC2)C1 [Compound 8, 4-{3-(Cyanomethyl)-3-[4-(7H-pyrrolo[2,3-d]pyrimidin-4-yl)-1H-pyrazol-1-yl]azetidin-1-yl}-N-[4-fluoro-2-(trifluoromethyl)phenyl]piperidine-1-carboxamide] | >10 | –
19 | N#CCC(C1CCN(c2cccc(Cl)n2)C1)n1cc(-c2ncnc3[nH]ccc23)cn1 (single isomer, unassigned) [Compound 3, 3-[1-(6-chloropyridin-2-yl)pyrrolidin-3-yl]-3-[4-(7H-pyrrolo[2,3-d]pyrimidin-4-yl)-1H-pyrazol-1-yl]propanenitrile] | >10 | –
20 | N#CCC(CN1CCN(C(=O)c2ccc(C#N)cc2F)CC1)n1cc(-c2ncnc3[nH]ccc23)cn1 (centres unmarked) [Compound 5] | >10 | –
